Several values for one entry are separate records, joined by “and”; a condition that tells them apart may be missing. Equal entries are not always repeated.
Tests used:
[1] = system: MV4-11 i.v. in BALB/cA Rag2-/-γc-/- mice; assay: Intravenous xenograft model (survival, CD11b in blood, body weight); assay type: in vivo, mouse; conditions: for CD11b in blood samples / overall survival (OS): MV4-11 i.v., 10 mg/kg i.p.; for overall survival (OS): 5 days on/2 off, 7 weeks; for body weight of mice: intravenous MV4-11 AML mouse model, individual mice; for CD11b levels in blood samples: mice engrafted intravenously with MV4-11 cells, individual mice (Fig 3E); for Survival time (Kaplan-Meier, event = 1): mice engrafted with MV4-11 cells intravenously, individual mice (Fig 3D)
Protocol: (§1) The human AML MV4-11 and MOLM-13 xenograft mice models were generated by intravenous (i.v.) injection of 10 × 10^6 (MV4-11) or 1 × 10^4 (MOLM-13) cells diluted in 100 µL of saline solution in the tail vein of a 6-8-week-old female BALB/cA Rag2^−/−γc^−/− mice (n = 10). Treatment started 7 or 1 day after MV4-11 or MOLM-13 cells injection, respectively. MV4-11 and MOLM-13 mice were treated with i.p. 10 mg/kg of CM-444 and CM-1758 during 5 consecutive days followed by 2 resting days for 7 and 2 weeks, respectively. The control group received only 80% saline solution, 10% DMSO and 10% Tween 20 (diluents of CM-444 and CM-1758). The mice weight was controlled and remained stable during the treatment. Statistical results were calculated using the statistical software Medcalc. CD11b levels in blood samples from an intravenous MV4-11 mice model were measured by flow cytometry, as described above.

[2] = system: MOLM-13 i.v. in BALB/cA Rag2-/-γc-/- mice; assay: as above; assay type: in vivo, mouse; conditions: for overall survival (OS): MOLM-13 i.v., 10 mg/kg i.p., 5 days on/2 off, 2 weeks; for Body weight: intravenous MOLM-13 AML mouse model, individual mice
Protocol: as §1

[3] = biological target: T1, HDAC5 (Homo sapiens, UniProt Q9UQL6); assay: HDAC assay (Eurofins); assay type: biochemical
T1 construct: purchased Eurofins (contracted assay service)

[4] = biological target: T2, HDAC11 (Homo sapiens, UniProt Q96DB2); assay: Continuous and direct activity assay for HDAC11; assay type: biochemical; conditions: for inhibition at 10 µM: source data of Fig. 1B; for IC50: Continuous Activity Assay for HDAC11
T2 sequence (Q96DB2 1-347): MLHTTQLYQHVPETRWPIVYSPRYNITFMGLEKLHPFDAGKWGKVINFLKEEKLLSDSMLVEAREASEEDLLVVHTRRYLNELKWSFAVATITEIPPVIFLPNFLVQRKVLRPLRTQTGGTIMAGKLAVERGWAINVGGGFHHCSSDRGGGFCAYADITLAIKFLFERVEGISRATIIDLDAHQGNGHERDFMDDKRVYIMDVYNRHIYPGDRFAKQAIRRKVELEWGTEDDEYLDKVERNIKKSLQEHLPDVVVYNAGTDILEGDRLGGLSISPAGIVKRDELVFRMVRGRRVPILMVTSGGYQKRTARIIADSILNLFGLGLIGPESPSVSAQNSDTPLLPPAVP

[5] = biological target: T3, HDAC9 (Homo sapiens, UniProt Q9UKV0); assay: HDAC assay (Eurofins); assay type: biochemical
T3 construct: purchased Eurofins (contracted assay service)

[6] = biological target: T4, HDAC7 (Homo sapiens, UniProt Q8WUI4); assay: HDAC assay (Eurofins); assay type: biochemical
T4 construct: purchased Eurofins (contracted assay service)
T4 sequence (Q8WUI4 1-952): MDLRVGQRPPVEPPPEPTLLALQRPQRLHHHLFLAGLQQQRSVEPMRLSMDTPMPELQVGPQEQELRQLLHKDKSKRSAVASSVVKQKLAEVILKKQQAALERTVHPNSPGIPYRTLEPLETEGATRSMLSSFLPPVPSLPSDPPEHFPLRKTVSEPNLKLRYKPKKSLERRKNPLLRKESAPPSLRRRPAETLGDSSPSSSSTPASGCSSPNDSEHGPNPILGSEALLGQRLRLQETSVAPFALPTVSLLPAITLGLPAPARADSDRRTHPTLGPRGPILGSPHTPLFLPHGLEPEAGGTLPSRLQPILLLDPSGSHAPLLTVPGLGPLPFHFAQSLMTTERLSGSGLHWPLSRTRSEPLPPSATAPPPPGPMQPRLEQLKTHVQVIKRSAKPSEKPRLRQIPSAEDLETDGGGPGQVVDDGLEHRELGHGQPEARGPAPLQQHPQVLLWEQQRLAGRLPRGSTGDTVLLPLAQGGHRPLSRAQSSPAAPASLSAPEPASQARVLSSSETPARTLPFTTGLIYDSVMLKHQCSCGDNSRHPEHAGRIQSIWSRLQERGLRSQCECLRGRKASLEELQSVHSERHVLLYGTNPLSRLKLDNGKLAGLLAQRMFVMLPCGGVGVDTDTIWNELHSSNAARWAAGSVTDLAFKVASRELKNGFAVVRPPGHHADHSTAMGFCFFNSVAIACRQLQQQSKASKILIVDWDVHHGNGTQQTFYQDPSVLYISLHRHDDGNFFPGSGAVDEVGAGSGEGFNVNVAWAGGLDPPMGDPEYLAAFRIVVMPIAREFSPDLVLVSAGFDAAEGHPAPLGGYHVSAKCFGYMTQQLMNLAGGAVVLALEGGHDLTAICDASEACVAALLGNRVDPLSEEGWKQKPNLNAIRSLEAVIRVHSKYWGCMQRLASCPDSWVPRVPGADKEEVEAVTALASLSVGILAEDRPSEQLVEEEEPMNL

T1 sequence (Q9UQL6 whole entry): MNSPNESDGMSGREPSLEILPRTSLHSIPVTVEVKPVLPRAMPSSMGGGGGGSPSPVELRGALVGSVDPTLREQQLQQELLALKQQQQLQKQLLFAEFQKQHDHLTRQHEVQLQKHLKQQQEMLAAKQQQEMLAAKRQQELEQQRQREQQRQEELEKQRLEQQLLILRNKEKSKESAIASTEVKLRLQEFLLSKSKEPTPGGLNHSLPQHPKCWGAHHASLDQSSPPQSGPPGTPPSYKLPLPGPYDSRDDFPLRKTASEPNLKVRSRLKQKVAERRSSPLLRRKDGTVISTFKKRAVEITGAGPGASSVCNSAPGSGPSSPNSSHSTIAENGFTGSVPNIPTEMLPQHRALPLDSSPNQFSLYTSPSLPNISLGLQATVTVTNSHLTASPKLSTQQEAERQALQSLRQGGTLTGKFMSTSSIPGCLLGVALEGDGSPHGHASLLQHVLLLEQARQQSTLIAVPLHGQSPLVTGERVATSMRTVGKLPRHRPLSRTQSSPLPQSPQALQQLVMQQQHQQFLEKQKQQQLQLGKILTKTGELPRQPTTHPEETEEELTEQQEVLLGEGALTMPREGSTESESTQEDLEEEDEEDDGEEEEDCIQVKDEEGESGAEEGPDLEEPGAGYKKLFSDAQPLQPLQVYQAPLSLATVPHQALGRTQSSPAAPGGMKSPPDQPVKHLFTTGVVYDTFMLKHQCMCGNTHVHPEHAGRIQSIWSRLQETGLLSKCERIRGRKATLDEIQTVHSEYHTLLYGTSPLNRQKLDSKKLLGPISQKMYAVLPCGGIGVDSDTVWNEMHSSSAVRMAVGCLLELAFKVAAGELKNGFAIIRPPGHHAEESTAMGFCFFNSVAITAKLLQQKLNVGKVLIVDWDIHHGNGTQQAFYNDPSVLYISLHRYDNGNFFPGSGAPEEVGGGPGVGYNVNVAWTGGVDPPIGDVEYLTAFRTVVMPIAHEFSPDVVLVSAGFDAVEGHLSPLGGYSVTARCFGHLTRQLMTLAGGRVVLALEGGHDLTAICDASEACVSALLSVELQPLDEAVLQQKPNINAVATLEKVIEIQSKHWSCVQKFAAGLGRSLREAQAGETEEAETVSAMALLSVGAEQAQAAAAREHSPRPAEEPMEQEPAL
T3 sequence (Q9UKV0 whole entry): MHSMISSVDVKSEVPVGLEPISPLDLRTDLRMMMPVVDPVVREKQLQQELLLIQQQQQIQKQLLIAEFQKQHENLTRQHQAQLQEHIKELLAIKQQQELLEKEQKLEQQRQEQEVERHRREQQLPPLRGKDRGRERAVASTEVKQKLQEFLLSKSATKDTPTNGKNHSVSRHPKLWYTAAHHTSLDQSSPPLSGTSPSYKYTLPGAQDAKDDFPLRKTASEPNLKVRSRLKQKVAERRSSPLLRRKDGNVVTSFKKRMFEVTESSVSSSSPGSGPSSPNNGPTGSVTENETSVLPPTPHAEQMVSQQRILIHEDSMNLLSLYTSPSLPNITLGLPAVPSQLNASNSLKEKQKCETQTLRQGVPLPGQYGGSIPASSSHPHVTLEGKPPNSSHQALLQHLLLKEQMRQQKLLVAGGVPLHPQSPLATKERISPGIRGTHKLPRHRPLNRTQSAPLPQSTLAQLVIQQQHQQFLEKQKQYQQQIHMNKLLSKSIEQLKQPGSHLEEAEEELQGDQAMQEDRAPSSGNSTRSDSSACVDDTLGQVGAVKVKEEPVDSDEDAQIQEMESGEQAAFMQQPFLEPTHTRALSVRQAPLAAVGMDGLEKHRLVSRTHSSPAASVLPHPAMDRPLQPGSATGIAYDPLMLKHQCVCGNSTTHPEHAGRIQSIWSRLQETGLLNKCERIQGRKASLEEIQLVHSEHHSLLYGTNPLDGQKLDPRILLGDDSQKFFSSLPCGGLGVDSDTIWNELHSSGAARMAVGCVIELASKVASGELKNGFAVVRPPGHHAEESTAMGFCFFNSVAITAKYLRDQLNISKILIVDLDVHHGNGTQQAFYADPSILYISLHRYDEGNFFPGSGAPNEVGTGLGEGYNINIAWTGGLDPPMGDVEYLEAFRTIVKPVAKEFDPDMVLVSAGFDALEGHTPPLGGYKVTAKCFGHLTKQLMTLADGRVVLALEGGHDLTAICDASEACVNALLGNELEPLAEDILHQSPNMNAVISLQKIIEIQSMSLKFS

SMILES	CD11b in blood samples [1]	overall survival (OS) [1]	body weight of mice ([1]; day 25)	body weight of mice ([1]; day 28)	body weight of mice ([1]; day 30)	body weight of mice ([1]; day 31)	body weight of mice ([1]; day 37)	CD11b levels in blood samples [1]	Survival time (Kaplan-Meier, event = 1) [1]	overall survival (OS) [2]	Body weight ([2]; day 4)	Body weight ([2]; day 11)	Body weight ([2]; day 13)	IC50 [3] [nM]	inhibition at 10 µM [3] [%]	inhibition at 10 µM [4] [%]	IC50 [4] [nM]	IC50 [5] [nM]	inhibition at 10 µM [5] [%]	IC50 [6] [nM]	further results
COc1cc2nc(-c3ccc(C)o3)cc(NCC3CCN(c4ncc(C(=O)NO)cn4)CC3)c2cc1OC [CM-444, 2-[4-[[[6,7-dimethoxy-2-(5-methyl-2-furyl)-4-quinolyl]amino]methyl]-1-piperidyl]pyrimidine-5-carbohydroxamic acid]	statistically significant increase in CD11b	increased overall survival	26.4 and 24.4 and 24.5 and 23.9 and 24.8 (2×) and 25.1 (2×) and 23.7 and 27.9 and 26.1 and 24.2	25.9 and 24.3 and 24.1 (2×) and 22 and 24.6 (2×) and 25.3 and 25.1 and 27.9 and 26.2 and 24.2	26.4 and 24 (2×) and 23.8 and 20.4 and 24.3 and 25 and 24.7 and 24.2 and 27.6 and 25.5 and 24.5	25.8 and 24.8 (2×) and 24.4 and 22.9 and 25.7 and 24.5 and 23.7 and 27.3 and 24.6 and 24.7	26.5 and 24.6 and 24.4 and 25 (3×) and 27.2 (2×) and 27.7 and 27	7.18% and 15.3% and 22.1% and 21.14% and 13% and 34.5% and 22% and 9.14% and 7.78%	32 days and 46 days and 48 days and 51 days and 53 days and 54 days	not having observed an increase in OS	22.8 and 24 (2×) and 25 and 23.7 and 22.6 (2×) and 23.6 and 23 and 25.3	21.7 and 22.4 and 23 and 24.4 and 22.3 and 22.8 and 22.2 (2×) and 21.4 and 24.5	22.1 (2×) and 23 and 23.1 and 24 and 22.7 and 22.9 and 22.3 and 21.2 and 24.8	59	97	90	568	90	98	120	body weight of mice ([1]; day 20): 26 (2×) and 24.2 and 24.3 and 23.2 and 24.5 (2×) and 25.1 and 24.8 and 27 and 25.7 and 24; body weight of mice ([1]; day 23): 26.5 and 24.3 (3×) and 24.7 and 23.9 and 25.1 and 25.2 and 24.9 and 24.6 and 27.6 and 26.2; body weight of mice ([1]; day 35): 26.1 (2×) and 23.9 and 23.7 and 24.1 and 25.9 and 24.3 and 24.7 and 26.6 and 25; body weight of mice ([1]; day 42): 25.9 and 24.4 and 22.5 and 24.3 (2×) and 27 and 25.2 and 26.9 and 27.3; Body weight ([2]; day 6, in g (unit assumed)): 23.1 and 23.8 and 23.5 and 25 and 24.1 and 23.2 and 23 and 22.6 and 22 and 26.2; Body weight ([2]; day 8): 22 (2×) and 23.1 and 23.6 and 24.1 and 23.2 and 22.9 and 22.7 and 22.6 and 25.8; inhibition at 10 µM [6]: 89%
COc1cc2nc(-c3cc(C)oc3C)cc(NCC3CCN(c4ncc(C(=O)NO)cn4)CC3)c2cc1OC [CM-1758, 2-[4-[[[2-(2,5-dimethyl-3-furyl)-6,7-dimethoxy-4-quinolyl]amino]methyl] -1-piperidyl]pyrimidine-5-carbohydroxamic acid]	statistically significant increase in CD11b	increased overall survival	23.7 (2×) and 23.8 and 27.9 and 26.9 and 23.2 and 22.7 and 19.6 and 22.8 and 21.9 and 22.2 and 22	23.6 (2×) and 23.8 and 26.5 and 26.6 and 23.2 and 23.1 and 18.9 and 21.4 and 21.2 and 21.7	23.1 and 23.9 and 25.7 and 26.6 and 22.3 and 22.6 (2×) and 18.6 and 21 (2×) and 22.1	23.5 and 22.8 and 25.9 and 26.7 and 22.3 and 22.1 (2×) and 18.3 and 21.8 and 21.3 and 17.9	23.4 and 24.4 (2×) and 27.2 and 26.3 and 22.9 and 18.3 and 23.1 and 22 and 22.7	26.3% and 16.2% and 21.1% and 11.9% and 23.1% and 11% and 20.5%	25 days and 32 days and 46 days and 48 days and 53 days and 57 days	not having observed an increase in OS	25.4 and 23.9 (2×) and 24.4 and 22.7 (2×) and 23.8 and 21.5 and 23 and 21.9	24.3 and 22.3 and 23.6 and 21.6 and 21.7 (2×) and 20.7 and 21 and 21.5 and 22.6	24.3 and 22.6 and 23.5 and 21.5 (2×) and 22.1 and 21.4 and 21.9 and 21.7 and 22.4	270	98	90	600	92	97	120	body weight of mice ([1]; day 20, in g (unit assumed)): 25 and 24.9 and 24 and 26.8 and 24.5 and 23.3 and 20.4 and 22.9 and 24.6 and 23.8 and 22.8 and 23; body weight of mice ([1]; day 23, in g (unit assumed)): 23.9 and 24.6 and 28.5 and 27.5 and 23.5 and 23 and 19.4 and 23.1 and 23.8 and 22.2 and 22.5 and 22.4; body weight of mice ([1]; day 35, in g (unit assumed)): 24 and 22.9 and 26.1 and 26.8 and 22.4 and 23.1 and 19.4 and 22.5 and 22 and 22.1; body weight of mice ([1]; day 42, in g (unit assumed)): 25.8 and 24.7 and 28.1 and 26.1 and 23.8 and 24.5 and 20.5 and 23.3; body weight of mice ([1]; day 44, in g (unit assumed)): 26 and 25.3 and 28.3; Body weight ([2]; day 6): 25.4 and 23 and 24.3 and 22 and 22.6 and 21.4 and 22.8 (2×) and 22.1 and 22.4; Body weight ([2]; day 8, in g (unit assumed)): 24.7 and 22.7 and 23.8 and 22.6 and 21.8 and 21.7 and 22.1 and 21.9 and 22 and 22.8; inhibition at 10 µM [6]: 89%
